Measured values as given in patent US20100099130A1, “METHODS AND DEVICES FOR MONITORING PLATELET FUNCTION” (PLACOR INC., priority 2006, published 2010).

Assays:
[1] = system: platelet adhesion; settings: long-term aspirin therapy; cited from earlier work
[2] = system: platelets; experiment: Platelet Reactivity Test (PRT), time to platelet mass formation in whole blood of volunteers; type: in vivo, human; settings: after taking aspirin, most volunteers; without aspirin the test concludes in less than 100 seconds
Method: The PRT test is used to activate platelet gel formations using a small (20 microliter) whole blood sample to help identify proper platelet function in the absence of platelet drug therapy and to identify inhibited platelet function in the presence of platelet drug therapy. The test is performed by running a small quantity of blood through a channel restriction that will induce the formation of platelet gels and trap them in a focused area similar to the way platelets are activated and focused in the body. Cartridge 150 has capillary tube inlet 160 that can receive a capillary tube filled with blood. A capillary tube filled with blood can be attached to capillary tube port 200. Conduit 230 leads from capillary tube port 200 to junction 270 and junction 270 splits into conduit 250 and passageways 240, 260. Conduit 250 and passageways 240, 260 include overflow wells 280. Conduit 250 and passageways 240, 260 lead to ports 180, 170, 190, respectively. […] In a preferred embodiment, the cartridge 150 has a bar code that is read by the instrument 400. […] The instrument 400 will report the average of the platelet reactivity times determined from the blood in passageways 240 and 260. […] If the two platelet reactivity times determined from the blood in passageways 240 and 260 are greatly different, the instrument will indicate that the test is invalid. […]

CC(=O)Oc1ccccc1C(=O)O [aspirin]
individuals who do not achieve inhibition of platelet adhesion [1]: up to 30% | PRT (platelet reactivity time) [2]: greater than 150 seconds
